Several values for one entry are separate records, joined by “and”; a condition that tells them apart may be missing. Equal entries are not always repeated. Records with an inconclusive call do not appear.
Test system: CD8F1 mice, subcutaneous mammary adenocarcinoma, T/C%
Assay: NCI In Vivo Anticancer Drug Screen. Data for tumor model Mammary Adenocarcinoma CD8F1 (subcutaneous) in CD8F1
Details: higher = larger tumour
Description: The antitumor activity of compounds was measured in mice bearing transplantable tumors. Survival or tumor size were measured and the results are expressed as the measurement made in the treated group (T) divided by the measurement made in the vehicle treated control group (C). The tumor model used in this assay is Mammary Adenocarcinoma CD8F1 (subcutaneous) in CD8F1

[1] = endpoint: median tumor weight (est.), dose: 12.5 mg/kg/injection, schedule: Q07DX005 (ip), vehicle: Klucel (hydroxypropylcellulose) (HPC)
[2] = endpoint: median tumor weight (est.), dose: 25.0 mg/kg/injection, schedule: Q07DX005 (ip), vehicle: Klucel (hydroxypropylcellulose) (HPC)
[3] = endpoint: median tumor weight (est.), dose: 100.0 mg/kg/injection, schedule: Q07DX005 (ip), vehicle: Klucel (hydroxypropylcellulose) (HPC)
[4] = endpoint: median tumor weight (est.), dose: 200.0 mg/kg/injection, schedule: Q07DX005 (ip), vehicle: Klucel (hydroxypropylcellulose) (HPC)
[5] = endpoint: mean tumor weight, dose: 50.0 mg/kg/injection, schedule: Q01DX009 (ip), vehicle: saline
[6] = endpoint: median tumor weight (est.), dose: 25.0 mg/kg/injection, schedule: Q07DX005 (ip), vehicle: saline
[7] = endpoint: median tumor weight (est.), dose: 50.0 mg/kg/injection, schedule: Q07DX005 (ip), vehicle: saline
[8] = endpoint: median tumor weight (est.), dose: 100.0 mg/kg/injection, schedule: Q07DX005 (ip), vehicle: saline
[9] = endpoint: median tumor weight (est.), dose: 200.0 mg/kg/injection, schedule: Q07DX005 (ip), vehicle: saline
[10] = endpoint: median tumor weight (est.), dose: 400.0 mg/kg/injection, schedule: Q07DX005 (ip), vehicle: saline
[11] = endpoint: median tumor weight (est.), dose: 50.0 mg/kg/injection, schedule: Q07DX005 (ip), vehicle: Klucel (hydroxypropylcellulose) (HPC)
[12] = endpoint: median tumor weight (est.), dose: 400.0 mg/kg/injection, schedule: Q07DX005 (ip), vehicle: Klucel (hydroxypropylcellulose) (HPC)

In the case of `O=C1c2c(O)ccc(O)c2C(=O)c2c(NCCNCCO)ccc(NCCNCCO)c21`, the T/C (endpoint: median tumor weight (est.), dose: 0.25 mg/kg/injection, schedule: Q07DX005 (ip), vehicle: acid diluted with saline) is reported as 106 % of control, the T/C (endpoint: median tumor weight (est.), dose: 0.5 mg/kg/injection, schedule: Q07DX005 (ip), vehicle: acid diluted with saline) is reported as 93 % of control and the T/C (endpoint: median tumor weight (est.), dose: 0.5 mg/kg/injection, schedule: Q07DX005 (ip), vehicle: water) is reported as 59 % of control. The T/C (endpoint: median tumor weight (est.), dose: 1.0 mg/kg/injection, schedule: Q07DX005 (ip), vehicle: acid diluted with saline) was 82 % of control, the T/C (endpoint: median tumor weight (est.), dose: 1.0 mg/kg/injection, schedule: Q07DX005 (ip), vehicle: water) was 112 % of control and the T/C (endpoint: median tumor weight (est.), dose: 2.0 mg/kg/injection, schedule: Q07DX005 (ip), vehicle: acid diluted with saline) was 65 % of control.
In the case of `C(=N/NC1=NCCN1)/c1c2ccccc2c(/C=N\NC2=NCCN2)c2ccccc12`, the T/C (endpoint: median tumor weight change, dose: 25.0 mg/kg/injection, schedule: Q01DX001 (ip), vehicle: saline) is reported as 78 % of control, the T/C (endpoint: median tumor weight change, dose: 50.0 mg/kg/injection, schedule: Q01DX001 (ip), vehicle: saline) is reported as 101 % of control and the T/C (endpoint: median tumor weight change, dose: 100.0 mg/kg/injection, schedule: Q01DX001 (ip), vehicle: saline) is reported as 37 % of control.
With `CC(=O)Oc1ccccc1O` the T/C (endpoint: median tumor weight change, dose: 62.5 mg/kg/injection, schedule: Q01DX001 (ip), vehicle: saline + Tween-80 + alcohol) was 50 % of control, the T/C (endpoint: median tumor weight change, dose: 125.0 mg/kg/injection, schedule: Q01DX001 (ip), vehicle: saline + Tween-80 + alcohol) was 57 % of control and the T/C (endpoint: median tumor weight change, dose: 250.0 mg/kg/injection, schedule: Q01DX001 (ip), vehicle: saline + Tween-80 + alcohol) was 58 % of control.
With `CN1N=C(N)c2cn(C3OC(COP(=O)(O)O)C(O)C3O)c3ncnc1c23` (stereo not drawn) the T/C (endpoint: median tumor weight (est.), dose: 9.37 mg/kg/injection, schedule: Q07DX005 (ip), vehicle: other) was 46 % of control, the T/C (endpoint: median tumor weight (est.), dose: 12.5 mg/kg/injection, schedule: Q07DX005 (ip), vehicle: water) was 121 % of control and the T/C (endpoint: median tumor weight (est.), dose: 18.75 mg/kg/injection, schedule: Q07DX005 (ip), vehicle: other) was 52 % of control. For the same compound, the T/C (endpoint: median tumor weight (est.), dose: 25.0 mg/kg/injection, schedule: Q07DX005 (ip), vehicle: water) was 54 % of control, the T/C (endpoint: median tumor weight (est.), dose: 37.5 mg/kg/injection, schedule: Q07DX005 (ip), vehicle: other) was 25 % of control and the T/C (endpoint: median tumor weight (est.), dose: 50.0 mg/kg/injection, schedule: Q07DX005 (ip), vehicle: water) was 25 % of control. For the same compound, the T/C (endpoint: median tumor weight (est.), dose: 75.0 mg/kg/injection, schedule: Q07DX005 (ip), vehicle: other) was 16 % of control, the T/C (endpoint: median tumor weight (est.), dose: 100.0 mg/kg/injection, schedule: Q07DX005 (ip), vehicle: water) was 7 % of control and the T/C (endpoint: median tumor weight (est.), dose: 150.0 mg/kg/injection, schedule: Q07DX005 (ip), vehicle: other) was 5 % of control.
For `Cc1cc2c(C(C)C)c(O)c(O)c(C=O)c2c(O)c1-c1c(C)cc2c(C(C)C)c(O)c(O)c(C=O)c2c1O`, the T/C (endpoint: median tumor weight change, dose: 31.25 mg/kg/injection, schedule: Q01DX001 (ip), vehicle: saline with Tween-80) was 65 % of control.
With `O=C1CC2(C(=O)N1CN1CCOCC1)c1ccccc1-c1ccccc12` the T/C (endpoint: median tumor weight change, dose: 250.0 mg/kg/injection, schedule: Q01DX001 (ip), vehicle: Klucel (hydroxypropylcellulose) (HPC)) was 167 % of control, the T/C (endpoint: median tumor weight change, dose: 500.0 mg/kg/injection, schedule: Q01DX001 (ip), vehicle: Klucel (hydroxypropylcellulose) (HPC)) was 102 % of control and the T/C (endpoint: median tumor weight change, dose: 1000.0 mg/kg/injection, schedule: Q01DX001 (ip), vehicle: Klucel (hydroxypropylcellulose) (HPC)) was 40 % of control.
In the case of `CC(=O)N(C)c1ccc(Nc2cc(C)[nH]c3ccc4ncnc4c23)cc1`, the T/C (endpoint: median tumor weight change, dose: 125.0 mg/kg/injection, schedule: Q01DX001 (ip), vehicle: saline) is reported as 34 % of control and 46 % of control.
With `C=Cc1cnc([N+](=O)[O-])n1C` the T/C [1] was 122 % of control, the T/C [2] was 92 % of control and the T/C [3] was 42 % of control. The T/C [4] was 30 % of control.
With `O=c1[nH]c(=O)n(C2CC(O)C(CO)O2)cc1F` (stereo not drawn) the T/C (endpoint: mean tumor weight, dose: 25.0 mg/kg/injection, schedule: Q01DX009 (ip), vehicle: saline) was 50 % of control, the T/C [5] was 20 % of control and the T/C (endpoint: mean tumor weight, dose: 100.0 mg/kg/injection, schedule: Q01DX009 (ip), vehicle: saline) was 30 % of control. For the same compound, the T/C (endpoint: mean tumor weight, dose: 125.0 mg/kg/injection, schedule: Q07DX005 (ip), vehicle: saline) was 585 % of control, the T/C (endpoint: mean tumor weight, dose: 125.0 mg/kg/injection, schedule: Q07DX006 (ip), vehicle: saline) was 49 % of control and the T/C (endpoint: mean tumor weight, dose: 250.0 mg/kg/injection, schedule: Q07DX005 (ip), vehicle: saline) was 180 % of control. The T/C (endpoint: mean tumor weight, dose: 250.0 mg/kg/injection, schedule: Q07DX006 (ip), vehicle: saline) was 6 % of control, the T/C (endpoint: mean tumor weight, dose: 500.0 mg/kg/injection, schedule: Q07DX005 (ip), vehicle: saline) was 473 % of control and the T/C (endpoint: median tumor weight (est.), dose: 12.5 mg/kg/injection, schedule: Q07DX005 (ip), vehicle: saline) was 97 % of control. The T/C [6] was 116 % of control, the T/C [7] was 72 % of control and 81 % of control and the T/C [8] was 62 % of control and 78 % of control. The T/C [9] was 27 % of control and 46 % of control and the T/C [10] was 5 % of control and 11 % of control.
For `Nc1nc(F)nc2c1ncn2C1OC(COP(=O)(O)O)C(O)C1O` (stereo not drawn), the T/C (endpoint: median tumor weight (est.), dose: 12.5 mg/kg/injection, schedule: Q07DX005 (ip), vehicle: suspension in saline) was 69 % of control, the T/C [2] was 49 % of control and the T/C [6] was 84 % of control. The T/C (endpoint: median tumor weight (est.), dose: 25.0 mg/kg/injection, schedule: Q07DX005 (ip), vehicle: suspension in saline) was 101 % of control, the T/C [11] was 77 % of control and the T/C (endpoint: median tumor weight (est.), dose: 50.0 mg/kg/injection, schedule: Q07DX005 (ip), vehicle: suspension in saline) was 76 % of control. For the same compound, the T/C [3] was 101 % of control, the T/C [8] was 75 % of control and 98 % of control and the T/C (endpoint: median tumor weight (est.), dose: 100.0 mg/kg/injection, schedule: Q07DX005 (ip), vehicle: suspension in saline) was 66 % of control. The T/C [4] was 50 % of control, the T/C (endpoint: median tumor weight (est.), dose: 200.0 mg/kg/injection, schedule: Q07DX005 (ip), vehicle: suspension in saline) was 50 % of control and the T/C [12] was 34 % of control. The T/C [10] was 20 % of control.
In the case of `COC1C(CO)OC(n2cnc3c(=S)nc(N)[nH]c32)C1O` (stereo not drawn), the T/C [1] is reported as 109 % of control, the T/C [2] is reported as 116 % of control and the T/C [11] is reported as 112 % of control. For the same compound, the T/C [3] was 79 % of control, the T/C [4] was 28 % of control and the T/C [12] was 22 % of control.
For `C=C(C)C1C2CC3(C)C4(CO4)C4OC4C3(O)C1C(=O)O2` (stereo not drawn), the T/C (endpoint: median tumor weight change, dose: 1.25 mg/kg/injection, schedule: Q01DX001 (ip), vehicle: Klucel (hydroxypropylcellulose) (HPC)) was 85 % of control.
`CN(C)[C@@H]1C(=O)C(C(N)=O)=C(O)[C@@]2(O)C(=O)C3=C(O)c4c(O)ccc(Cl)c4[C@@](C)(O)[C@H]3C[C@@H]12` was tested, and the T/C (endpoint: median tumor weight change, dose: 31.25 mg/kg/injection, schedule: Q01DX001 (ip), vehicle: suspension in saline) was 86 % of control, the T/C (endpoint: median tumor weight change, dose: 62.5 mg/kg/injection, schedule: Q01DX001 (ip), vehicle: suspension in saline) was 104 % of control and the T/C (endpoint: median tumor weight change, dose: 125.0 mg/kg/injection, schedule: Q01DX001 (ip), vehicle: suspension in saline) was 84 % of control. For the same compound, the T/C (endpoint: median tumor weight change, dose: 250.0 mg/kg/injection, schedule: Q01DX001 (ip), vehicle: suspension in saline) was 83 % of control.
For `CCCC(=O)Nc1ncnc2c1ncn2C1OC2COP(=O)(O)OC2C1OC(=O)CCC` (stereo not drawn), the T/C [5] was 100 % of control, the T/C (endpoint: mean tumor weight, dose: 100.0 mg/kg/injection, schedule: Q07DX007 (ip), vehicle: saline) was 117 % of control and the T/C (endpoint: mean tumor weight, dose: 200.0 mg/kg/injection, schedule: Q01DX009 (ip), vehicle: saline) was 111 % of control. The T/C (endpoint: mean tumor weight, dose: 200.0 mg/kg/injection, schedule: Q07DX007 (ip), vehicle: saline) was 78 % of control, the T/C (endpoint: mean tumor weight, dose: 400.0 mg/kg/injection, schedule: Q01DX009 (ip), vehicle: saline) was 55 % of control and the T/C (endpoint: mean tumor weight, dose: 400.0 mg/kg/injection, schedule: Q07DX007 (ip), vehicle: saline) was 43 % of control. For the same compound, the T/C [6] was 75 % of control, the T/C [7] was 114 % of control and the T/C [8] was 122 % of control. For the same compound, the T/C [9] was 77 % of control, the T/C [10] was 83 % of control and the T/C (endpoint: median tumor weight (est.), dose: 800.0 mg/kg/injection, schedule: Q07DX005 (ip), vehicle: saline) was 72 % of control.
`COc1ccc(C(=O)C(CN(C)C)CN(C)C)cc1` was tested, and the T/C (endpoint: median tumor weight change, dose: 7.81 mg/kg/injection, schedule: Q01DX001 (ip), vehicle: saline) was 103 % of control, the T/C (endpoint: median tumor weight change, dose: 15.62 mg/kg/injection, schedule: Q01DX001 (ip), vehicle: saline) was 88 % of control and the T/C (endpoint: median tumor weight change, dose: 31.25 mg/kg/injection, schedule: Q01DX001 (ip), vehicle: saline) was 84 % of control.

— PubChem BioAssay AID220 (DTP/NCI, 2004)
